Data published in patent US6767895B2 (priority 2000, dated 2004).

How the values were obtained:
[1] = in vivo
mice = conditions: mouse, in vivo
goldfish = conditions: in vivo

Row | Substance | activity in formalin test (licking time) [1] | effects observed shortly after injection in mice (mice) | effects observed shortly after injection in goldfish (goldfish)
1 | Gly-Xaa3-Ser-Phe-Cys-Lys-Ala-Asn-Gly-Lys-Xaa3-Cys-Ser-Xaa5-His-Ala-Asp-Cys-Cys-Asn-Cys-Cys-Leu-Ser-Gly-Ile-Cys-Lys-Xaa3-Ser-Thr-Asn-Val-Ile-Leu-Xaa3-Gly-Cys-Ser-Thr-Ser-Ser-Phe-Phe-Arg-Ile [R11.14] | active | – | –
2 | Xaa2-Cys-Lys-Thr-Asn-Lys-Met-Ser-Cys-Ser-Leu-His-Xaa1-Xaa1-Cys-Cys-Arg-Phe-Arg-Cys-Cys-Phe-His-Gly-Lys-Cys-Gln-Thr-Ser-Val-Phe-Gly-Cys-Xaa4-Val-Asp-Xaa3 [R11.19] | – | running and jumping in short duration immediately followed by convulsion with back legs kicking, copius urination, coma and death | gasping (gills opening widely), followed by swimming backward or in circular and/or vertical motion, imbalanced swimming (body tilting), lying almost flat near the bottom and death
